{"source": "paper PMC5823474", "about": "“A natural agonist of mosquito TRPA1 from the medicinal plant Cinnamosma fragrans that is toxic, antifeedant, and repellent to the yellow fever mosquito Aedes aegypti” (PLoS Neglected Tropical Diseases, 2018)", "molecular_target": "T1, AgTRPA1 (Transient Receptor Potential A1) (Anopheles gambiae, UniProt B3G3I7)", "T1 construct": "AgTRPA1 cRNA expressed in Xenopus laevis oocytes", "T1 sequence (B3G3I7 1-1248)": "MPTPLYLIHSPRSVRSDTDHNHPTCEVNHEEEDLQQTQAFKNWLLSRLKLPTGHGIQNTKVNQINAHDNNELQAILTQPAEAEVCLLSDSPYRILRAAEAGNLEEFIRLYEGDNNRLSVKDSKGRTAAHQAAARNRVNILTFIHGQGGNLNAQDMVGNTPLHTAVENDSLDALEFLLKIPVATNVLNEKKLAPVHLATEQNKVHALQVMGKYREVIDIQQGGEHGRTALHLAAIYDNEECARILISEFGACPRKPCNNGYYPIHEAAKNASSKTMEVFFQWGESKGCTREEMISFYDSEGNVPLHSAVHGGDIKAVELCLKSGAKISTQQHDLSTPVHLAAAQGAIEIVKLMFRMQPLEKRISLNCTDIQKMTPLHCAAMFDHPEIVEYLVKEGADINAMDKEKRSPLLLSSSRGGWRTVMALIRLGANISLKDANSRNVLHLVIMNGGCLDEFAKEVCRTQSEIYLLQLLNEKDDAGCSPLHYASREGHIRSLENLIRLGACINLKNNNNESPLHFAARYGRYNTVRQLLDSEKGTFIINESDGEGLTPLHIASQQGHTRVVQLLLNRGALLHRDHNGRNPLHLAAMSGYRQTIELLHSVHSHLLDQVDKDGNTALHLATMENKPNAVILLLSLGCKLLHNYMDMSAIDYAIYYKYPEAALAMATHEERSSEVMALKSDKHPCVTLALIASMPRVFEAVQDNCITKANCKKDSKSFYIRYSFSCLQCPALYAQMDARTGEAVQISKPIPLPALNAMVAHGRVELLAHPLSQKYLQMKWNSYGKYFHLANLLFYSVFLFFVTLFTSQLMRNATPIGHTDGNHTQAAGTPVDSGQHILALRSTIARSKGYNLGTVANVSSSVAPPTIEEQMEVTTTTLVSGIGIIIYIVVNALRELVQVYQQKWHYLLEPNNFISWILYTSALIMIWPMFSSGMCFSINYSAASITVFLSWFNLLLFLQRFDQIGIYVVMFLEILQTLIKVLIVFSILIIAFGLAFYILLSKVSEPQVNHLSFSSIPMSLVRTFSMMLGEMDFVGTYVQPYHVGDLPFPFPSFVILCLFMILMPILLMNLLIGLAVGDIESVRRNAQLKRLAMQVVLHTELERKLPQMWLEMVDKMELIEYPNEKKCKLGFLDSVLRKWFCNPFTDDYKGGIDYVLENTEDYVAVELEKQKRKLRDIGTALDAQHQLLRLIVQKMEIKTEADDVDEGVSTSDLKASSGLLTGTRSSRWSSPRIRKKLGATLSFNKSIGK", "test": "two-electrode voltage clamp in Xenopus oocytes, weaker agonist at […]; no response in H2O-injected oocytes", "type": "cell-based", "data": [{"smiles": "CC(=O)O[C@@H]1C=C(C2O[C@@H]3O[C@@H](O)C4=C[C@@H](OC(C)=O)[C@H]5C(C)(C)CCC[C@]5(C)[C@]43O2)[C@](O)(C=O)[C@@]2(C)CCCC(C)(C)[C@H]12", "note": "(stereo partly shown) [CFRAG, cinnafragrin A]", "values": [{"measurement": "two-electrode voltage clamp in Xenopus oocytes, weaker agonist at 10 μM; no resp", "value": "CFRAG produced a similar response, but the peak Im elicited by CDIAL"}]}]}
